Key:
Assay type in all cases: cell-based
[1] = test system: phospho-MEK1 (Ser217/Ser221) and phospho-ERK1/2 (Thr202/Tyr204, Thr185/Tyr187); experiment: Bio-Plex phospho-MEK1 and phospho-ERK1/2; conditions: 45 minute exposure, 1 µM, K-RAS wild-type and mutant cells
Method: (§1) The Bio-Plex assay system was used to measure signaling in drug-treated cells. Briefly, cells were incubated in the presence of drug for various amounts of time and then lysed in Bio-Rad cell lysis buffer (Bio-Rad). Protein quantification was performed using BCA assay (Pierce) and 5 µg of protein from each sample was used for Bio-Plex analysis. Phospho-signaling assays were performed using available phospho-signaling assay kits and quantified on a Bio-Plex 200 system (Bio-Rad): p-Iκβα (Ser32/Ser36), p-JNK (Thr183/Tyr185), p-MEK1 (Ser217/Ser221), p-ERK1/2 (Thr202/Tyr204, Thr185/Tyr187), p-p90RSK (Thr359/Ser363), p-p38 (Thr180/Tyr182), p-c-JUN (Ser63), p-ATF2 (Thr71), p-AKT (Ser473), p-S6 (Ser235/Ser236), p-STAT3 (Ser727), p-STAT3 (Tyr705), and p-GSK3α/β (Ser21/Ser9). Bio-Plex assay for total MEK1 was also performed as a loading control.

[2] = test system: HCT-116 (K-RAS^G13D/+); experiment: Cell viability (Syto60); conditions: 72 hours, HCT-116 compared to HKe-3, normalized to DMSO
Method: (§2) All colon cancer cell lines were maintained in DMEM supplemented with penicillin (100 units/mL), streptomycin (100 μg/mL), and 10% fetal bovine serum (FBS). The rectal cancer cell line (Car1) was maintained in DMEM/F12 supplemented with penicillin (100 units/mL)/streptomycin (50 μg/mL), and 5% FBS. […] The target sequences for knockdowns can be found in Table S2. In drug treatment experiments, cells were plated for 24 hours prior to exposure to drug. AZ-628 was obtained from AstraZeneca. CI-1040 was obtained from Pfizer. R406 was synthesized in the Gray laboratory. BAY61-3606 and IKK VII were purchased from EMD Biosciences. BAY derivatives were synthesized for this study.
(§3) Cell cycle analysis was performed via FACS-based propidium iodide quantification, using standard methods. To measure cell viability, cells were grown in 96-well plates in the presence or absence of drug for 72 hours, fixed with 4% paraformaldehyde, and then stained with Syto60 (Invitrogen). Plates were imaged and quantified using the LiCor Odyssey system (LiCor).

[3] = test system: phospho-Iκβα (Ser32/Ser36); experiment: Bio-Plex phospho-Iκβα; conditions: HKe-3 cells, 1 µM
Method: as §1

[4] = test system: phospho-JNK (Thr183/Tyr185); experiment: Bio-Plex phospho-JNK; conditions: HKe-3 cells, 1 µM
Method: as §1

[5] = test system: HT-29 (B-RAF^V600E/+); experiment: Cell cycle analysis (propidium iodide FACS); conditions: cell lines that express mutant B-RAF (HT-29)
Method: as §3

[6] = test system: colorectal cancer cells expressing mutant B-RAF (V600E) (HT-29, RKO); experiment: Cell viability (Syto60); conditions: HT-29 and RKO, 72 hours
Method: as §2, §3

[7] = test system: HKe-3 (K-RAS^−/+); experiment: Cell viability (Syto60); conditions: 72 hours; for cooperation with / sensitization to AZ-628 (cell viability): K-RAS wild-type cells (HKe-3), 1 µM AZ-628
Method: as §2, §3

[8] = test system: DLD-1 cells; experiment: Cell viability (Syto60); conditions: DLD-1, 72 hours, 1 μM
Method: as §2, §3

[9] = test system: DKs-8; experiment: Cell viability (Syto60); conditions: DKs-8, 72 hours, 1 μM
Method: as §2, §3

## Cc1ccc(NC(=O)c2cccc(C(C)(C)C#N)c2)cc1Nc1ccc2ncn(C)c(=O)c2c1 [AZ-628]
[1]
  MEK and ERK phosphorylation: suppressed MEK and ERK phosphorylation
[2]
  sensitivity of cells expressing mutant K-RAS (cell viability): relatively sensitive
[3]
  Iκβα phosphorylation: further induced
[4]
  JNK activation: strongly activated

## O=C(NOCC1CC1)c1ccc(F)c(F)c1Nc1ccc(I)cc1Cl [CI-1040]
[5]
  cell cycle effect: induced G1 arrest
[6]
  cell viability, combination of BAY61-3606 and CI-1040: cooperated to produce an enhanced response
[6]; single agent
  sensitivity of cells expressing mutant B-RAF (cell viability): sensitive
[2]
  sensitivity of cells expressing mutant K-RAS (cell viability): insensitive

## O=C(c1ccc(Nc2nccc(-c3cc4ccccc4s3)n2)cc1)N1CCC(N2CCCC2)CC1 [IKK inhibitor VII]
[7]; HKe-3 cells with MAP4K2 knockdown, 1 µM + 1 µM AZ-628
  sensitization to AZ-628 (cell viability): abrogated the ability of IKK inhibitor VII to sensitize
[7]
  cooperation with / sensitization to AZ-628 (cell viability): enhanced the effect of AZ-628

## COc1cc(Nc2ncc(F)c(Nc3ccc4c(n3)NC(=O)C(C)(C)O4)n2)cc(OC)c1OC [R406]
[8]
  sensitivity (cell viability): did not exhibit sensitivity
[9]
  sensitivity (cell viability): did not exhibit sensitivity

## Oc1c2ccccc2c2c3c(cccc13)N=N2 [SP600125]
[7]
  cooperation with / sensitization to AZ-628 (cell viability): did not affect AZ-628 sensitivity
